Assay results from article PMC9454089, “Structural and Mechanistic Evidence for Calcium Interacting Sites in the HIV Transmembrane Protein gp41 Involved in Membrane Fusion” (Biochemistry, 2022).
Like-named read-outs stand apart in the source and are kept apart here. Residues, ends and D or L forms follow the SMILES beside them.

System: gp41 mediated cell–cell fusion (HXB2 strain HIV-1 Env; HL2-3 / TZM-bl cells)
Assay type: cell-based
Settings: Figure 3, TZM-bl target and HL2/3 effector cells, 6 h coculture at 37 °C, luciferase, average ± S.E.M., n = 3, read-out: IC50, inhibition of cell–cell fusion
Description: Effector cells were the Env expressing cells HL2-3, a HeLa-derived cell line which constitutively expresses the HXB2 strain of the HIV-1 Env glycoprotein along the Tat protein, and as target cells, TZM-bl cells were used. The fusion of HL2-3 cells with TZM-bl cells was assessed through luciferase expression. The TZM-bl cells were seeded at 2 × 10^4 cells/well overnight in 96-well plates. The medium was then aspirated from each well and replaced with serum-free DMEM containing 40 μg/mL DEAE-dextran. […] Upon addition of the peptides, the HL2-3 cells were added to the TZM-bl cells in serum-free DMEM containing 40 μg/mL DEAE-dextran at a 1:1 cell ratio. The cells were cocultured at 37 °C for 6 h to allow the fusion to occur. Luciferase activity was analyzed using the Steady-Glo luciferase assay kit (Promega). Fitting of the data points was performed according to the following equation, derived from Hills’ equation [drawing 1]
For the fitting, we uploaded the X and Y values of the data into a nonlinear least-square regression (curve fitter) program that provided the IC50 value (parameter A).
A one-tailed Student’s T-test was used. P < 0.05 was considered significant. Analyses were done using GraphPad Prism (data analysis software) version 6.05 (*P ≤ 0.05, **P ≤ 0.01, and ***P ≤ 0.001).

Structure (SMILES)	IC50 (0 mM Ca2+)	IC50 (2 mM Ca2+)	IC50 (5 mM Ca2+)
CC[C@H](C)[C@H](NC(=O)[C@H](CCC(=O)O)NC(=O)[C@H](CCCNC(=N)N)NC(=O)[C@H](C)NC(=O)[C@H](Cc1c[nH]c2ccccc12)NC(=O)[C@H](CCC(=O)O)NC(=O)[C@H](CCSC)NC(=O)[C@@H](N)Cc1c[nH]c2ccccc12)C(=O)N[C@@H](CC(N)=O)C(=O)N[C@@H](CC(N)=O)C(=O)N[C@@H](Cc1ccc(O)cc1)C(=O)N[C@H](C(=O)N[C@@H](CO)C(=O)N[C@@H](CC(C)C)C(=O)N[C@H](C(=O)N[C@@H](Cc1c[nH]cn1)C(=O)N[C@@H](CO)C(=O)N[C@@H](CC(C)C)C(=O)N[C@H](C(=O)N[C@@H](CCC(=O)O)C(=O)N[C@@H](CCC(=O)O)C(=O)N[C@@H](CO)C(=O)N[C@@H](CCC(N)=O)C(=O)N[C@@H](CC(N)=O)C(=O)N[C@@H](CCC(N)=O)C(=O)N[C@@H](CCC(N)=O)C(=O)N[C@@H](CCC(=O)O)C(=O)N[C@@H](CCCCN)C(=O)N[C@@H](CC(N)=O)C(=O)N[C@@H](CCC(=O)O)C(=O)N[C@@H](CCC(N)=O)C(=O)N[C@@H](CCC(=O)O)C(=O)N[C@@H](CC(C)C)C(=O)N[C@@H](CC(C)C)C(N)=O)[C@@H](C)CC)[C@@H](C)CC)[C@@H](C)O [C34 D-A]	0.6 ± 0.4 nM	1.5 ± 0.7 nM	
CC[C@H](C)[C@H](NC(=O)CNC(=O)[C@H](Cc1c[nH]c2ccccc12)NC(=O)[C@@H](NC(=O)[C@@H](NC(=O)[C@H](CC(C)C)NC(=O)[C@H](CCC(N)=O)NC(=O)[C@H](CC(C)C)NC(=O)[C@H](CC(C)C)NC(=O)[C@H](C)NC(=O)[C@H](CCC(N)=O)NC(=O)[C@H](CCC(N)=O)NC(=O)[C@H](C)NC(=O)[C@H](C)NC(=O)[C@@H](NC(=O)[C@H](C)NC(=O)[C@H](C)NC(=O)[C@H](CC(C)C)NC(=O)[C@H](CC(C)C)NC(=O)[C@H](CC(N)=O)NC(=O)[C@H](CC(N)=O)NC(=O)[C@H](CCC(N)=O)NC(=O)[C@H](CCC(N)=O)NC(=O)[C@H](CCC(N)=O)NC(=O)[C@@H](NC(=O)[C@@H](NC(=O)CNC(=O)[C@@H](N)CO)[C@@H](C)CC)C(C)C)[C@@H](C)CC)[C@@H](C)O)C(C)C)C(=O)N[C@@H](CCCCN)C(=O)N[C@@H](CCC(N)=O)C(=O)N[C@@H](CC(C)C)C(=O)N[C@@H](CCC(N)=O)C(=O)N[C@@H](C)C(=O)N[C@@H](CCCNC(=N)N)C(=O)N[C@H](C(=O)N[C@@H](CC(C)C)C(N)=O)[C@@H](C)CC [N36 3A] (H-SGIVQQQNNLLAAIAAQQALLQLTVWGIKQLQARIL-NH2)	2980 ± 1070 nM	262 ± 180 nM	800 ± 140 nM
